# According to patent US5304367A, “In vivo brain imaging agent and method for diagnosis of psychiatric disorders” (New York University, priority 1990, dated 1994):
# Read-outs that look alike come from different tables or passages of the source.
# Experiments:
# βAR [1] = format: binding, human
# [2] = whole body distribution, female BALB/c mice, 500 μCi/kg; format: in vivo, mouse (BALB/c)
# βAR [3] = test: quantitative autoradiography, age dependence of βAR distribution in the human brain; format: binding
# [4] = whole body distribution, mice, 2 μCi; format: in vivo, mouse
# Description: In a subsequent study, whole body distribution was examined in mice following tail vein injection of 2 μCi ^125 I-iodopindolol. Animals were sacrificed at various time points up to 22 hours post-injection. Percent injected dose (%ID) was determined in 11 organs, blood and urine. At one minute, lungs contained the highest %ID (17%), heart 3-4 %ID and brain 0.3%ID.
smiles,measurement,setting,value
CC(C)NCC(O)COc1cccc2[nH]cc([125I])c12 (stereo not shown) [^125 I-iodopindolol],specific binding,"βAR [1]; cingulate gyrus, external band, female, n=4",1.20 ± 0.31 fmol [^125 I]iodopindolol/mg tissue
same,specific binding,"βAR [1]; cingulate gyrus, external band, male, n=10",0.99 ± 0.18 fmol [^125 I]iodopindolol/mg tissue
same,specific binding,"βAR [1]; cingulate gyrus, internal band, female, n=4",1.31 ± 0.24 fmol [^125 I]iodopindolol/mg tissue
same,specific binding,"βAR [1]; cingulate gyrus, internal band, male, n=10",0.87 ± 0.16 fmol [^125 I]iodopindolol/mg tissue
same,specific binding,"βAR [1]; gyrus rectus, external band, female, n=3",1.42 ± 0.13 fmol [^125 I]iodopindolol/mg tissue
same,specific binding,"βAR [1]; gyrus rectus, external band, male, n=9",0.93 ± 0.18 fmol [^125 I]iodopindolol/mg tissue
same,specific binding,"βAR [1]; gyrus rectus, internal band, female, n=3",1.24 ± 0.23 fmol [^125 I]iodopindolol/mg tissue
same,specific binding,"βAR [1]; gyrus rectus, internal band, male, n=9",0.80 ± 0.13 fmol [^125 I]iodopindolol/mg tissue
same,specific binding,"βAR [1]; inferior frontal gyrus, external band, female, n=5",1.08 ± 0.19 fmol [^125 I]iodopindolol/mg tissue
same,specific binding,"βAR [1]; inferior frontal gyrus, external band, male, n=11",0.86 ± 0.13 fmol [^125 I]iodopindolol/mg tissue
same,specific binding,"βAR [1]; inferior frontal gyrus, internal band, female, n=5",0.99 ± 0.16 fmol [^125 I]iodopindolol/mg tissue
same,specific binding,"βAR [1]; inferior frontal gyrus, internal band, male, n=11",0.78 ± 0.13 fmol [^125 I]iodopindolol/mg tissue
same,specific binding,"βAR [1]; medial frontal gyrus, external band, female, n=5",1.36 ± 0.23 fmol [^125 I]iodopindolol/mg tissue
same,specific binding,"βAR [1]; medial frontal gyrus, external band, male, n=13",0.77 ± 0.12 fmol [^125 I]iodopindolol/mg tissue
same,specific binding,"βAR [1]; medial frontal gyrus, internal band, female, n=5",1.09 ± 0.16 fmol [^125 I]iodopindolol/mg tissue
same,specific binding,"βAR [1]; medial frontal gyrus, internal band, male, n=12",0.71 ± 0.10 fmol [^125 I]iodopindolol/mg tissue
same,specific binding,"βAR [1]; orbital gyri, external band, female, n=4",1.46 ± 0.25 fmol [^125 I]iodopindolol/mg tissue
same,specific binding,"βAR [1]; orbital gyri, external band, male, n=11",0.77 ± 0.12 fmol [^125 I]iodopindolol/mg tissue
same,specific binding,"βAR [1]; orbital gyri, internal band, female, n=4",1.24 ± 0.18 fmol [^125 I]iodopindolol/mg tissue
same,specific binding,"βAR [1]; orbital gyri, internal band, male, n=10",0.70 ± 0.10 fmol [^125 I]iodopindolol/mg tissue
same,specific binding,"βAR [1]; superior frontal gyrus, external band, female, n=6",1.48 ± 0.25 fmol [^125 I]iodopindolol/mg tissue
same,specific binding,"βAR [1]; superior frontal gyrus, external band, male, n=16",0.87 ± 0.09 fmol [^125 I]iodopindolol/mg tissue
same,specific binding,"βAR [1]; superior frontal gyrus, internal band, female, n=6",1.24 ± 0.12 fmol [^125 I]iodopindolol/mg tissue
same,specific binding,"βAR [1]; superior frontal gyrus, internal band, male, n=16",0.82 ± 0.07 fmol [^125 I]iodopindolol/mg tissue
same,specific binding,"βAR [1]; white matter, female, n=6",0.78 ± 0.09 fmol [^125 I]iodopindolol/mg tissue
same,specific binding,"βAR [1]; white matter, male, n=16",0.46 ± 0.04 fmol [^125 I]iodopindolol/mg tissue
same,brain levels relative to blood levels (mCi per gram of brain / mCi per ml blood),[2]; 1 minute post-injection,about 1/5
same,"brain levels, injected dose",[2]; 1 minute post-injection,less than 1 % of injected dose
same,urine levels,[2]; 1 minute post-injection,below the threshold of detection
same,highest concentrations of radioactivity (counts/gram of tissue),"[2]; 1 minute post-injection, 500 μCi/kg i.v.","in the lungs, followed by heart and other organs"
same,receptor occupancy,"[2]; 120 min, based on Bmax of approximately 2 pmole/gram brain",less than 1%
same,Bmax used for receptor occupancy,[2]; extrapolated from rat and human values,approximately 2 pmole/gram brain
same,"brain levels, total injected dose",[2]; two hours later (120 min),0.06 % of total injected dose
same,"highest activity, order of organs",[2]; two hours later (120 min),"highest activity was found in urine, followed by lung, heart and brain"
same,specifically bound,"βAR [3]; caudate nucleus, head, male, N=5",1.45 ± 0.34 fmol [^125 I]iodopindolol/mg tissue
same,specifically bound,"βAR [3]; caudate nucleus, tail, female, N=8",1.15 ± 0.17 fmol [^125 I]iodopindolol/mg tissue
same,specifically bound,"βAR [3]; caudate nucleus, tail, male, N=14",1.39 ± 0.23 fmol [^125 I]iodopindolol/mg tissue
same,specifically bound,"βAR [3]; claustrum, female, N=5",0.64 ± 0.18 fmol [^125 I]iodopindolol/mg tissue
same,specifically bound,"βAR [3]; claustrum, male, N=9",0.86 ± 0.14 fmol [^125 I]iodopindolol/mg tissue
same,specifically bound,"βAR [3]; entorhinal cortex, female, N=3",0.94 ± 0.33 fmol [^125 I]iodopindolol/mg tissue
same,specifically bound,"βAR [3]; entorhinal cortex, male, N=10",1.00 ± 0.19 fmol [^125 I]iodopindolol/mg tissue
same,specifically bound,"βAR [3]; globus pallidus, lateral, female, N=5",0.78 ± 0.16 fmol [^125 I]iodopindolol/mg tissue
same,specifically bound,"βAR [3]; globus pallidus, lateral, male, N=8",0.85 ± 0.20 fmol [^125 I]iodopindolol/mg tissue
same,specifically bound,"βAR [3]; globus pallidus, medial, female, N=3",0.44 ± 0.09 fmol [^125 I]iodopindolol/mg tissue
same,specifically bound,"βAR [3]; globus pallidus, medial, male, N=8",0.73 ± 0.17 fmol [^125 I]iodopindolol/mg tissue
same,specifically bound,"βAR [3]; hippocampus, CA fields, molecular layer, female, N=4",1.70 ± 0.40 fmol [^125 I]iodopindolol/mg tissue
same,specifically bound,"βAR [3]; hippocampus, CA fields, molecular layer, male, N=13",1.74 ± 0.26 fmol [^125 I]iodopindolol/mg tissue
same,specifically bound,"βAR [3]; hippocampus, CA fields, pyramidal layer, female, N=4",1.70 ± 0.26 fmol [^125 I]iodopindolol/mg tissue
same,specifically bound,"βAR [3]; hippocampus, CA fields, pyramidal layer, male, N=13",1.74 ± 0.26 fmol [^125 I]iodopindolol/mg tissue
same,specifically bound,"βAR [3]; inferior temporal gyrus, external band, female, N=5",1.21 ± 0.14 fmol [^125 I]iodopindolol/mg tissue
same,specifically bound,"βAR [3]; inferior temporal gyrus, external band, male, N=13",1.04 ± 0.16 fmol [^125 I]iodopindolol/mg tissue
same,specifically bound,"βAR [3]; inferior temporal gyrus, internal band, female, N=6",1.11 ± 0.17 fmol [^125 I]iodopindolol/mg tissue
same,specifically bound,"βAR [3]; inferior temporal gyrus, internal band, male, N=13",1.14 ± 0.17 fmol [^125 I]iodopindolol/mg tissue
same,specifically bound,"βAR [3]; lateral occipitotemporal gyrus, external band, female, N=6",0.93 ± 0.19 fmol [^125 I]iodopindolol/mg tissue
same,specifically bound,"βAR [3]; lateral occipitotemporal gyrus, external band, male, N=13",0.94 ± 0.13 fmol [^125 I]iodopindolol/mg tissue
same,specifically bound,"βAR [3]; lateral occipitotemporal gyrus, internal band, female, N=6",0.86 ± 0.11 fmol [^125 I]iodopindolol/mg tissue
same,specifically bound,"βAR [3]; lateral occipitotemporal gyrus, internal band, male, N=13",1.02 ± 0.14 fmol [^125 I]iodopindolol/mg tissue
same,specifically bound,"βAR [3]; medial temporal gyrus, external band, female, N=6",1.03 ± 0.15 fmol [^125 I]iodopindolol/mg tissue
same,specifically bound,"βAR [3]; medial temporal gyrus, external band, male, N=13",1.05 ± 0.18 fmol [^125 I]iodopindolol/mg tissue
same,specifically bound,"βAR [3]; medial temporal gyrus, internal band, female, N=6",1.06 ± 0.15 fmol [^125 I]iodopindolol/mg tissue
same,specifically bound,"βAR [3]; medial temporal gyrus, internal band, male, N=13",1.18 ± 0.17 fmol [^125 I]iodopindolol/mg tissue
same,specifically bound,"βAR [3]; parahippocampal gyrus, external band, female, N=7",1.22 ± 0.32 fmol [^125 I]iodopindolol/mg tissue
same,specifically bound,"βAR [3]; parahippocampal gyrus, external band, male, N=13",1.07 ± 0.19 fmol [^125 I]iodopindolol/mg tissue
same,specifically bound,"βAR [3]; parahippocampal gyrus, internal band, female, N=6",1.01 ± 0.23 fmol [^125 I]iodopindolol/mg tissue
same,specifically bound,"βAR [3]; parahippocampal gyrus, internal band, male, N=13",0.95 ± 0.15 fmol [^125 I]iodopindolol/mg tissue
same,specifically bound,"βAR [3]; putamen, female, N=6",1.05 ± 0.22 fmol [^125 I]iodopindolol/mg tissue
same,specifically bound,"βAR [3]; putamen, male, N=11",1.24 ± 0.18 fmol [^125 I]iodopindolol/mg tissue
same,specifically bound,"βAR [3]; subiculum, female, N=5",1.35 ± 0.33 fmol [^125 I]iodopindolol/mg tissue
same,specifically bound,"βAR [3]; subiculum, male, N=12",1.36 ± 0.20 fmol [^125 I]iodopindolol/mg tissue
same,specifically bound,"βAR [3]; superior temporal gyrus, external band, female, N=6",1.18 ± 0.18 fmol [^125 I]iodopindolol/mg tissue
same,specifically bound,"βAR [3]; superior temporal gyrus, external band, male, N=14",1.13 ± 0.16 fmol [^125 I]iodopindolol/mg tissue
same,specifically bound,"βAR [3]; superior temporal gyrus, internal band, female, N=6",1.04 ± 0.13 fmol [^125 I]iodopindolol/mg tissue
same,specifically bound,"βAR [3]; superior temporal gyrus, internal band, male, N=14",1.18 ± 0.15 fmol [^125 I]iodopindolol/mg tissue
same,specifically bound,"βAR [3]; white matter, female, N=8",0.47 ± 0.09 fmol [^125 I]iodopindolol/mg tissue
same,specifically bound,"βAR [3]; white matter, male, N=18",0.59 ± 0.07 fmol [^125 I]iodopindolol/mg tissue
same,radioactivity in all organs,[4]; between 2-4 hours post-injection,fell in all organs
same,"brain, percent injected dose (%ID)","[4]; one minute, 2 μCi tail vein",0.3 %ID
same,"heart, percent injected dose (%ID)","[4]; one minute, 2 μCi tail vein",3-4 %ID
same,"lungs, percent injected dose (%ID)","[4]; one minute, 2 μCi tail vein",17 %ID
same,"brain levels, time course",[4]; until two hours post-injection,remained stable until two hours post-injection
same,lung radioactivity,[4]; until two hours post-injection,declined
same,stomach and intestine radioactivity,[4]; until two hours post-injection,increased
